Data published in patent US9422240B2, “Partially saturated nitrogen-containing heterocyclic compound” (TAISHO PHARMACEUTICAL CO., LTD, priority 2012, dated 2016).

Biological target: human PHD2 (Homo sapiens (Human), UniProt Q9GZT9)
Experiment: Test 2: human PHD2 inhibitory activity, fluorescence polarization assay of HIF-1α peptide proline hydroxylation
Format: biochemical
Details: for IC50: human PHD2, fluorescence polarization assay, 20-min incubation at 30° C.; for inhibition at 1 µM: read-out: Percent inhibition (% at 1 μM)
Procedure: (1) Expression and Preparation of Human PHD2
A registered sequence of human PHD2 (NM_022051) was introduced into pcDNA3.1/Hygro(+) vector (Invitrogen), and the sequence was verified. […] The suspension of disrupted cells was centrifuged at 4° C. and 100,000×g for 30 minutes and the supernatant was recovered as a cell lysate.
(2) Measurement of Human PHD2 Inhibitory Activity
The activity of human PHD2 enzyme was measured with a substrate which is a 19-residue partial peptide based on the sequence of HIF-1α; specifically, the hydroxylation of a proline residue in the peptide was measured by FP (Fluorescence Polarization).
A test compound and the substrate solution were preliminarily added onto 384-well plates and reaction was initiated by adding a human PHD2 enzyme solution (40 ng/well). After 20-min incubation at 30° C., an EDTA-containing quench solution was added and the amount of the proline residues hydroxylated via binding to an added HIF—OH antibody solution was quantified by fluorescence polarization.
The fluorescence polarization of each well was measured and the human PHD2 inhibitory activity of each test compound was calculated on the basis of the values for the test compound-free group.

[1] = test compound's concentration 1 μM, Test 2, fluorescence polarization assay

Sequence of human PHD2 (Q9GZT9 whole entry): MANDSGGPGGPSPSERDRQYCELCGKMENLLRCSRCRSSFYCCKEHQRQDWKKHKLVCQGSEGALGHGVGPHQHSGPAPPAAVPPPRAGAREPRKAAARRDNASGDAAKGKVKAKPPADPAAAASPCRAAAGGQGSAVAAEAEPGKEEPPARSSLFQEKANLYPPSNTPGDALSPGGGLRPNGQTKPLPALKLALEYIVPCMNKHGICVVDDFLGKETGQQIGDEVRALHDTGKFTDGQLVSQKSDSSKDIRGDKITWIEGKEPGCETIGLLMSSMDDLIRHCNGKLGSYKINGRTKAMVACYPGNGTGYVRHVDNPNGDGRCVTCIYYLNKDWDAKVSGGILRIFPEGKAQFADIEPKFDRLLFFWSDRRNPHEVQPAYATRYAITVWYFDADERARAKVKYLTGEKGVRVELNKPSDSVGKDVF

Structure (SMILES) | IC50 [nM] | inhibition at 1 µM [1] [%] | Percent inhibition (% at 1 μM) [1] [%]
Cc1ccc(Oc2ccc(CN3CCC(O)=C(C(=O)NCC(=O)O)C3=O)cn2)cc1Cl [Ex. 1-366] | 19 | 103 | –
Cc1ccc(Oc2ccc(CN3CCC(O)=C(C(=O)NCC(=O)O)C3=O)cn2)cc1F [Ex. 1-367] | 26 | 105 | –
Cc1cc(Oc2ccc(CN3CCC(O)=C(C(=O)NCC(=O)O)C3=O)cn2)ccc1F [Ex. 1-368] | 41 | 101 | –
O=C(O)CNC(=O)C1=C(O)CCN(CC2CC(c3ccc(F)cc3)C2)C1=O (centres unmarked) [Ex. 1-371] | – | 90 | –
Cc1cccc(COc2ccc(CN3CCC(O)=C(C(=O)NCC(=O)O)C3=O)cc2)n1 [Ex. 1-373] | – | 85 | –
O=C(O)CNC(=O)C1=C(O)CCN(Cc2ccc(OCc3ccccc3)c(F)c2)C1=O [Ex. 1-374] | – | 96 | –
O=C(O)CNC(=O)C1=C(O)CCN(Cc2ccc(OCc3ccc(OC(F)(F)F)cc3)cc2)C1=O [Ex. 1-375] | – | 85 | –
CCc1ccc(Oc2ccc(CN3CCC(O)=C(C(=O)NCC(=O)O)C3=O)cn2)cc1 [Ex. 1-376] | 22 | 100 | –
CC(C)c1ccc(Oc2ccc(CN3CCC(O)=C(C(=O)NCC(=O)O)C3=O)cn2)cc1 [Ex. 1-378] | 14 | 98 | –
Cc1cc(CN2CCC(O)=C(C(=O)NCC(=O)O)C2=O)ccc1OCC(F)(F)F [Ex. 1-379] | – | 84 | –
O=C(O)CNC(=O)C1=C(O)CCN(Cc2ccc(OCc3ccccc3)nc2)C1=O [Ex. 1-380] | – | 92 | –
O=C(O)CNC(=O)C1=C(O)CCN(Cc2ccc(OCCC(F)(F)F)cc2)C1=O [Ex. 1-382] | – | 83 | –
Cc1cc(CN2CCC(O)=C(C(=O)NCC(=O)O)C2=O)ccc1OCCC(F)(F)F [Ex. 1-383] | – | 83 | –
O=C(O)CNC(=O)C1=C(O)CCN(Cc2ccc(OCCC(F)(F)F)c(F)c2)C1=O [Ex. 1-384] | – | 82 | –
Cc1ccc(COc2ccc(CN3CCC(O)=C(C(=O)NCC(=O)O)C3=O)cc2F)cc1 [Ex. 1-387] | – | 93 | –
O=C(O)CNC(=O)C1=C(O)CCN(CC2CCC(Oc3ccccc3)CC2)C1=O (centres unmarked) [Ex. 1-391] | – | – | 82
Cc1ccc(Oc2ncc(CN3CCC(O)=C(C(=O)NCC(=O)O)C3=O)cc2Cl)cc1 [Ex. 1-392] | 26 | 98 | –
Cc1nc(COc2ccc(CN3CCC(O)=C(C(=O)NCC(=O)O)C3=O)cc2Cl)c(C)o1 [Ex. 1-394] | – | 83 | –
Cc1ncccc1COc1ccc(CN2CCC(O)=C(C(=O)NCC(=O)O)C2=O)cc1 [Ex. 1-401] | – | 90 | –
O=C(O)CNC(=O)C1=C(O)CCN(C[C@H]2CC[C@H](Oc3ccc(F)cc3)CC2)C1=O [Ex. 1-402] | – | 109 | –
O=C(O)CNC(=O)C1=C(O)CCN(Cc2ccc(Oc3ccc(C4CC4)cn3)cc2)C1=O [Ex. 1-404] | 56 | 96 | –
O=C(O)CNC(=O)C1=C(O)CCN(Cc2ccc(OCc3cn4ccsc4n3)cc2)C1=O [Ex. 1-407] | – | 85 | –
Cc1cc(CN2CCC(O)=C(C(=O)NCC(=O)O)C2=O)cnc1OCCC1CC1 [Ex. 1-411] | – | 90 | –
O=C(O)CNC(=O)C1=C(O)CCN(C[C@H]2CC[C@H](Oc3ccc(F)cn3)CC2)C1=O [Ex. 1-412] | – | 87 | –
Cc1ccc(OCc2ccc(CN3CCC(O)=C(C(=O)NCC(=O)O)C3=O)cc2)cn1 [Ex. 1-415] | – | 94 | –
Cc1ccc(COc2ccc(CN3CCC(O)=C(C(=O)NCC(=O)O)C3=O)cn2)cc1 [Ex. 1-418] | – | 98 | –
O=C(O)CNC(=O)C1=C(O)CCN(Cc2ccc(OCc3ccc(Cl)cc3)nc2)C1=O [Ex. 1-419] | – | 98 | –
COc1cccc(-c2ccc(CN3CCC(O)=C(C(=O)NCC(=O)O)C3=O)cc2)n1 [Ex. 1-421] | – | 99 | –

More lines, now with the values ahead:

IC50 [nM] | inhibition at 1 µM [1] [%] | Percent inhibition (% at 1 μM) [1] [%] | Structure (SMILES)
– | 98 | – | O=C(O)CNC(=O)C1=C(O)CCN(Cc2ccc(OCc3ccccc3Cl)cc2)C1=O [Ex. 1-369]
– | 84 | – | CC1(COc2ccc(CN3CCC(O)=C(C(=O)NCC(=O)O)C3=O)cc2)CC1 [Ex. 1-370]
– | 89 | – | O=C(O)CNC(=O)C1=C(O)CCN(Cc2ccc(OCc3cccnc3)cc2)C1=O [Ex. 1-372]
15 | 96 | – | CCCc1ccc(Oc2ccc(CN3CCC(O)=C(C(=O)NCC(=O)O)C3=O)cn2)cc1 [Ex. 1-377]
– | 92 | – | Cc1cc(CN2CCC(O)=C(C(=O)NCC(=O)O)C2=O)ccc1OCc1ccccc1 [Ex. 1-381]
54 | 93 | – | Cc1ccc(Oc2cnc(CN3CCC(O)=C(C(=O)NCC(=O)O)C3=O)cn2)cc1 [Ex. 1-385]
48 | 92 | – | Cc1ccc(Oc2ccc(CN3CCC(O)=C(C(=O)NCC(=O)O)C3=O)cc2)cc1C [Ex. 1-386]
– | 92 | – | Cc1cc(CN2CCC(O)=C(C(=O)NCC(=O)O)C2=O)ccc1OCc1ccc(F)cc1 [Ex. 1-388]
– | 69 | – | Cc1cc(CN2CCC(O)=C(C(=O)NCC(=O)O)C2=O)ccc1OCc1ccc(OC(F)(F)F)cc1 [Ex. 1-389]
– | 89 | – | O=C(O)CNC(=O)C1=C(O)CCN(CC2CCC(Oc3ccccc3)CC2)C1=O (centres unmarked) [Ex. 1-390]
32 | 98 | – | Cc1ccc(Oc2ncc(CN3CCC(O)=C(C(=O)NCC(=O)O)C3=O)cc2F)cc1 [Ex. 1-393]
– | 90 | – | O=C(O)CNC(=O)C1=C(O)CCN(C[C@@H]2CC[C@@H](c3ccccc3)C2)C1=O [Ex. 1-395]
– | 89 | – | CC1(COc2ccc(CN3CCC(O)=C(C(=O)NCC(=O)O)C3=O)cn2)CC1 [Ex. 1-396]
– | 91 | – | Cc1ccc(COc2ccc(CN3CCC(O)=C(C(=O)NCC(=O)O)C3=O)cc2)cn1 [Ex. 1-398]
– | 55 | – | O=C(O)CNC(=O)C1=C(O)CCN(CC2(c3ccccc3)CC2)C1=O [Ex. 1-399]
– | 102 | – | O=C(O)CNC(=O)C1=C(O)CCN(C[C@H]2CC[C@H](Oc3ccc(C(F)(F)F)cc3)CC2)C1=O [Ex. 1-403]
– | 90 | – | O=C(O)CNC(=O)C1=C(O)CCN(Cc2ccc(OCc3ccc(Cl)cn3)cc2)C1=O [Ex. 1-405]
– | 86 | – | Cc1cnc(COc2ccc(CN3CCC(O)=C(C(=O)NCC(=O)O)C3=O)cc2)s1 [Ex. 1-406]
72 | 91 | – | Cc1ccc(Oc2ncc(CN3CCC(O)=C(C(=O)NCC(=O)O)C3=O)cn2)cc1 [Ex. 1-408]
25 | 98 | – | Cc1cc(CN2CCC(O)=C(C(=O)NCC(=O)O)C2=O)cnc1Oc1ccc(Cl)cc1 [Ex. 1-409]
– | 82 | – | Cc1cc(CN2CCC(O)=C(C(=O)NCC(=O)O)C2=O)cnc1OCC(F)(F)F [Ex. 1-410]
– | 75 | – | CC(C)(CN1CCC(O)=C(C(=O)NCC(=O)O)C1=O)c1ccc(Cl)cc1 [Ex. 1-413]
– | 96 | – | O=C(O)CNC(=O)C1=C(O)CCN(Cc2ccc(-c3ccc(C4CC4)nc3)cc2)C1=O [Ex. 1-414]
– | 95 | – | O=C(O)CNC(=O)C1=C(O)CCN(Cc2ccc(COc3ccccc3)cc2)C1=O [Ex. 1-416]
– | 99 | – | Cc1ccc(OCc2ccc(CN3CCC(O)=C(C(=O)NCC(=O)O)C3=O)cc2)cc1 [Ex. 1-417]
– | 92 | – | O=C(O)CNC(=O)C1=C(O)CCN(Cc2cnc(OCCC3CC3)c(Cl)c2)C1=O [Ex. 1-420]
– | 100 | – | O=C(O)CNC(=O)C1=C(O)CCN(Cc2ccc(-c3ccc(Cl)cn3)cc2)C1=O [Ex. 1-422]
